This is an account of results in publication PMC12454639, “Direct disassembly of α-syn preformed fibrils into α-syn monomers by an all-D-peptide” (NPJ Parkinson's Disease, 2025).

SMILES strings stand for the structures. Square brackets hold non-standard residues; d marks the D form. Peptide text beside a SMILES is read from it.

Data set [1] can be described thus: CD spectroscopy of SVD-1a alone. Particulars: 30 µM, PBS pH 7.4, 37 °C. The data set is classed as physicochemical. How it is done:
Far-UV circular dichroism (CD) data were collected using a Jasco J-1100 spectropolarimeter (Jasco, GE). 350 µl samples were pooled and loaded into a high precision quartz cuvette with a path length of 1 mm (Hellma group, GE). A scan speed of 20 nm/min with five accumulations per sample was performed using far UV wavelengths from 260 to 190 nm. Baseline was corrected by subtracting measurements of the reference sample only.
Supplementary Fig. 13: Analysis of the seeded aggregation assay in the presence and absence of SVD-1a using circular dichroism (CD) spectroscopy. Small α-syn PFF (500 nM) were incubated in PBS (pH 7.4) at 37 °C under quiescent conditions for 24 hours, either alone or in the presence of 15 µM α-synuclein monomer and/or 30 µM SVD-1a. For each condition and time point, three replicates (each 120 µl) were pooled and analyzed by CD spectroscopy at 0, 2, 8, and 24 hours. Far-UV ellipticity was measured in a quartz cuvette (path length = 10 mm) using a J-1100 CD spectrometer (Jasco, GE). […] (D) Co-incubation of 500 nM α-synuclein PFFs with 15 µM α-synuclein monomer induced a structural transition towards β-sheet formation, as reflected in the CD spectrum (referenced to spectrum in (A)).

Data set [2] concerns 15N-labeled full-length acetyl-α-syn. Nature of the data set: 1H-15N HSQC NMR. It counts as binding. The procedure:
Samples were prepared at final concentrations of 25 µM ^15N-labeled full-length acetyl-α-syn in the absence (reference) and presence of an equimolar amount of SVD-1a (not isotopically labeled, thus NMR-invisible) in PBS buffer, pH 7.4, with an addition of 5% D2O for internal reference. 2D 1H-15N HSQC spectra were recorded back-to-back, on a Bruker AVANCE NEO spectrometer (Bruker, USA) operating at 1200 MHz proton Larmor frequency. The experimental temperature was 10 °C. Spectral dimensions were 16.02 ppm (^1H) x 30 ppm (^15N), with 2048 points in the ^1H dimension and 256 increments in the ^15N dimension, resulting in an acquisition time of 53 ms for the ^1H dimension and 35 ms for the ^15N dimension. For each increment, 32 scans were recorded, with a recovery delay of 1 s between scans, resulting in an overall experimental time of […] per spectrum.
NMR data sets were processed using the Bruker TopSpin software (version 4.1.1) and visualized using CcpNmr Analysis (v2.4.2)[59]. For the assessment of chemical shift changes of α-syn resonances in the presence of SVD-1a relative to the reference spectrum (without SVD-1a), peak positions were extracted using the CcpNmr Analysis software. From the residue-specific chemical shift changes in the ^1H and ^15N dimensions, an absolute chemical shift change, Δδ, was calculated using the formula Δδ = 0.5δH2+0.14δN2 [60]. […]

The test system is the same in data set [3]. Briefly: NMR paramagnetic relaxation enhancement (PRE). It counts as binding. The note with it: spin-labeled SVD-1a (SVD-1a_Cys_MTSL), 1:1 with α-syn, 10 °C. The procedure: The spin-labeled analog of SVD-1a was prepared by covalent attachment of MTSL (S-(1-oxyl-2,2,5,5-tetramethyl-2,5-dihydro-1H-pyrrol-3-yl)methyl methanesulfonothioate, Toronto Research Chemicals, USA) to the C-terminal D-cysteine residue of SVD-1a_Cys. MTSL was dissolved in DMF (N,N-dimethylformamide) with a concentration of 20 mM and diluted in 200 mM HEPES, pH 7.6, to a final concentration of 2 mM. 900 µl of the solution was then added to 1 mg of lyophilized SVD-1a_Cys to create a fivefold molar excess of MTSL compared to SVD-1a_Cys. […]
NMR paramagnetic relaxation enhancement (PRE) data were recorded on 25 µM ^15N-labeled full-length acetyl-α-syn in the presence of 25 µM paramagnetically labeled (but not isotopically enriched) SVD-1a_Cys_MTSL (using a MTSL spin-label covalently attached to the SVD-1a C-terminus), resulting in a 1:1 ratio of α-syn: SVD-1a. Intensities (Ipara) were extracted from 2D ^1H–^15N Best-TROSY NMR spectra recorded at 600 MHz and 10 °C, each with 128 scans per increment, resulting in a total experimental time of 16 h per spectrum. […] The diamagnetic reference spectra and intensities (Idia) were recorded back-to-back and under identical conditions as for the paramagnetic sample. […]

Consider `CC[C@@H](C)[C@@H](NC(=O)[C@@H](Cc1c[nH]cn1)NC(=O)[C@@H](CCC(=O)O)NC(=O)[C@@H](CCC(N)=O)NC(=O)[C@@H](Cc1c[nH]c2ccccc12)NC(=O)[C@@H](Cc1ccc(O)cc1)NC(=O)[C@H](NC(=O)[C@@H](CCC(=O)O)NC(=O)[C@@H](Cc1c[nH]cn1)NC(=O)[C@H](NC(=O)[C@H]1CCCN1C(=O)[C@@H](CC(C)C)NC(=O)[C@H](N)CCCNC(=N)N)[C@H](C)O)[C@H](C)O)C(=O)N[C@H](Cc1c[nH]c2ccccc12)C(=O)N[C@H](Cc1c[nH]cn1)C(=O)N[C@H](C)C(=O)N[C@H](CCCNC(=N)N)C(=O)N[C@H](CCCNC(=N)N)C(=O)N[C@H](CCCNC(=N)N)C(=O)N[C@H](CCCNC(=N)N)C(=O)N[C@H](CCCNC(=N)N)C(N)=O` [SVD-1a] (H-[dR][dL][dP][dT][dH][dE][dT][dY][dW][dQ][dE][dH][dI][dW][dH][dA][dR][dR][dR][dR][dR]-NH2), for which, in data set [1], the “secondary structure of peptide alone (CD)” value is reported as “random coil secondary structure”. In data set [2] (25 µM 15N-α-syn + 25 µM SVD-1a, PBS pH 7.4, 10 °C, 1200 MHz), the “NMR chemical shift changes of α-syn” value is “the chemical shift changes are very small, with most residues showing significant chemical shift changes located in the C-terminal region”. Also, the “precipitation of α-syn in NMR sample” value in data set [2] (25 µM α-syn with 25 µM SVD-1a, 4.8 h at 10 °C) is given as “did not yield any signs of signal loss due to precipitation”. In addition, in data set [3], the “site of interaction with α-syn (PRE)” value is on record as “interacts with the entire α-syn monomer, with the C-terminal part showing the strongest interaction”.
